Measurements reported in patent US20110306606A1, “NOVEL 2,6-SUBSTITUTED-3-NITROPYRIDINE DERIVATIVE, METHOD FOR PREPARING SAME, AND PHARMACEUTICAL COMPOSITION INCLUDING SAME” (priority 2008, published 2011).
“And” between values parts separate entries of the source, which are not always exact repeats. Equal values may be shown once. Read-outs that look alike come from different tables or passages of the source.

Experiments:
[1] = system: formation of osteoclasts in co-culture of bone marrow cells and osteoblasts; experiment: Osteoclastogenesis inhibition via co-culture system (TRAP staining); format: cell-based, mice; conditions: 1 μM compound, 7 days co-culture, TRAP-positive multinucleated osteoclasts vs vehicle control; for inhibition at 1 µM: Mus musculus, Osteoclast, 168 h
Procedure: Osteoclastogenesis inhibitory effects of the compounds of the present invention were evaluated via a co-culture system (Reference: Endocrinology 137(1996), 2187 to 2190, E. Jimi et al.). A specific experimental method is as follows.
1) Preparation of Bone Marrow Cells and Osteoblasts
Femora and tibia were aseptically dissected from 6 to 8-week-old male ddY mice to harvest bone marrow cells by a conventional method using a syringe. In brief, tissues were removed from the dissected bone, the bone ends were cut off with scissors, and the bone marrow was isolated by pushing a medium-containing syringe (23G) against the one end of the cut bone. The isolated bone marrow was subjected to repeated piston movement of a syringe such that single cells were obtained (Reference: Endocrinology 123(1988), 2600 to 2602, Takahashi et al.). After removal of red blood cells within the bone marrow, the bone marrow cells recovered by centrifugation were placed in an α-MEM supplemented with 10% fetal bovine serum (FBS), followed by counting of nucleated cells and then were immediately used for a co-culture system.
2) Osteoclastogenesis Inhibition Experiment Via Co-Culture System
As the medium used for a co-culture system, a differentiation medium with the addition of differentiation factors 1α,25-dihydroxyvitamin D3 (10^−8M) and dexamethasone (10^−8M) to a-MEM supplemented with 10% FBS was used for the induction of osteoclastogenesis. First, the compounds dissolved in dimethyl sulfoxide (DMSO) at a concentration of 1 mM were diluted to 2 μM using the above-mentioned differentiation medium. As a vehicle control group, 0.2% (v/v) DMSO was added to the medium. 100 μL/well of each medium was added to 96-well plates. In addition, the above prepared bone marrow cells and osteoblasts were plated onto 96-well plates at a density of 1×10^5 cells/50 μL/well and 3×10^3 cells/50 μL/well, respectively. The total volume/well was 200 μL and the final compound concentration was 1 μM. The control group was 0.1% DMSO. The cells were cultured with exchange of the culture media with fresh media containing differentiation factors and test materials at an interval of 2 to 3 days.
7 days after culturing of cells, the formation of multinucleated osteoclasts was confirmed by microscopic examination, the medium was removed from the wells and then the cells were fixed in a 10% phosphate-buffered formalin solution. The degree of formation of mature osteoclasts was measured taking advantage of the characteristics of osteoclasts showing a positive reaction to a tartrate-resistant acid phosphatase (TRAP) staining solution. The TRAP staining solution was prepared in a manner such that naphthol AS-MS phosphate as a substrate and a coloring agent (Fast Red Violet LB salt) were dissolved in N,N-dimethylformamide, and a 0.1N NaHCO3 buffer solution containing 50 mM of tartaric acid was added thereto. Among the TRAP-positive cells under a light microscope, multinucleated osteoclasts having 6 to 7 nuclei were regarded as mature osteoclasts.
The degree of inhibition of osteoclastogenesis was calculated according to the following equation 1. The results are summarized in Table 27 below (Experiments were carried out for 4 wells/experimental group (n=4), and the results are given in terms of mean±standard deviation)
Inhibition of osteoclastogenesis(%)=(1−numbers of osteoclasts observed in experimental group/numbers of osteoclasts observed in vehicle control group)×100(%) [Equation 1]

[2] = system: Osteoblasts (Calvarial cells); experiment: Cytotoxicity test (MTT); conditions: 1 μM compound, 72 hours, in comparison with vehicle control
[3] = system: Osteoblasts (Calvarial cells); experiment: Alkaline phosphatase (ALP) activity in osteoblasts (Calvarial cells); format: cell-based, mice; conditions: 1 μM compound, 3 days
Summary of the method: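 Primary calvarial osteoblasts or MC3T3-E1 cells in α-MEM with 10% FBS were treated with 1 μM compound, against a 0.1% DMSO vehicle. Cell lysates were incubated with p-nitrophenylphosphate at 37° for 30 minutes and read at 405 nm. ALP activity was expressed as p-nitrophenol/μg protein/min and reported as % change versus vehicle.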

[4] = system: Osteoblasts (Calvarial cells); conditions: ICR, mouse, 72 h, 1 μM

| Structure (SMILES) | Osteoclastogenesis inhibition (%) 1 μM [1] | Cell viability (%) Calvarial cell [2] | ALP activity (1 μM, % of Control) Calvarial cell [3] | Cell viability (%) Calvarial cell [4] | inhibition at 1 µM [1] |
| --- | --- | --- | --- | --- | --- |
| CC1=NCCN1c1ccc([N+](=O)[O-])c(Nc2ccc(N3CCCCC3)c(F)c2)n1 [Compound 227, 2-[(3-fluoro-4-piperidino)phenylamino]-6-[(2-methyl-4,5-dihydro)imidazol-1-yl]-3-nitropyridine] | 65% | 103% | 122 % of Control |  |  |
| CNc1ccc([N+](=O)[O-])c(Nc2ccc(N3CCC(O)CC3)c(F)c2)n1 [Compound 236, 2-{[3-fluoro-4-(4-hydroxypiperidino)]phenylamino}-6-(methylamino)-3-nitropyridine] | 76% | 91% | 209 % of Control |  |  |
| CC(C)CNc1ccc([N+](=O)[O-])c(Nc2ccc(N3CCOCC3)c(F)c2)n1 [Compound 193, 2-[(3-fluoro-4-morpholino)phenylamino]-6-(isobutylamino)-3-nitropyridine] | 81% | 98% | 114 % of Control |  |  |
| CCN(CCO)c1ccc([N+](=O)[O-])c(Nc2ccc(-c3csc(C)n3)cc2)n1 [Compound 141, 2-[4-(2-methylthiazol-4-yl)phenylamino]-6-[(N-ethyl-2-hydroxy)ethylamino]-3-nitropyridine] | 82% | 102% | 129 % of Control |  |  |
| CC(C)CNc1ccc([N+](=O)[O-])c(Nc2ccc(N3CCCCC3)c(F)c2)n1 [Compound 225, 2-[(3-fluoro-4-piperidino)phenylamino]-6-(isobutylamino)-3-nitropyridine] | 60% | 90% | 150 % of Control |  |  |
| O=[N+]([O-])c1ccc(N2CCNCC2)nc1Nc1ccc(N2CCOCC2)c(F)c1 [Compound 201, 2-[(3-fluoro-4-morpholino)phenylamino]-6-(piperazin-1-yl)-3-nitropyridine] | 86% | 95% | 118 % of Control |  |  |
| O=[N+]([O-])c1ccc(NCc2cccnc2)nc1Nc1ccc(N2CCCCC2)c(F)c1 [Compound 229, 2-[(3-fluoro-4-piperidino)phenylamino]-6-[(3-pyridyl)methylamino]-3-nitropyridine] | 97% | 104% and 125% | 114 % of Control |  |  |
| O=[N+]([O-])c1ccc(N2CCOCC2)nc1Nc1ccc(N2CCCCC2)c(F)c1 [Compound 235, 2-[(3-fluoro-4-piperidino)phenylamino]-6-morpholino-3-nitropyridine] | 86% | 105% | 121 % of Control |  |  |
| CN1CCN(c2ccc([N+](=O)[O-])c(Nc3ccc(N4CCC(O)CC4)c(F)c3)n2)CC1 [Compound 244, 2-{[3-fluoro-4-(4-hydroxypiperidino)]phenylamino}-6-(4-methylpiperazin-1-yl)-3-nitropyridine] | 62% | 99% | 118 % of Control |  |  |
| CNc1ccc([N+](=O)[O-])c(Nc2ccc(N3CCNCC3)c(F)c2)n1 [Compound 215, 2-[(3-fluoro-4-piperazino)phenylamino]-6-(methylamino)-3-nitropyridine] | 91% | 104% | 125 % of Control |  |  |
| CC(C)(C)Nc1ccc([N+](=O)[O-])c(Nc2ccc(N3CCCCC3)c(F)c2)n1 [Compound 231, 2-[(3-fluoro-4-piperidino)phenylamino]-6-(t-butylamino)-3-nitropyridine] | 82% | 112% | 121 % of Control |  |  |
| CC(C)CNc1ccc([N+](=O)[O-])c(Nc2ccc(N3CCNCC3)c(F)c2)n1 [Compound 217, 2-[(3-fluoro-4-piperazino)phenylamino]-6-(isobutylamino)-3-nitropyridine] | 94% | 92% | 119 % of Control |  |  |
| O=[N+]([O-])c1ccc(N2CCNCC2)nc1Nc1ccc(N2CCSCC2)c(F)c1 [Compound 213, 2-[(3-fluoro-4-thiomorpholino)phenylamino]-6-(piperazin-1-yl)-3-nitropyridine] | 94% | 95% | 121 % of Control |  |  |
| CC(C)Nc1ccc([N+](=O)[O-])c(Nc2ccc(N3CCNCC3)c(F)c2)n1 [Compound 216, 2-[(3-fluoro-4-piperazino)phenylamino]-6-(isopropylamino)-3-nitropyridine] | 93% | 92% | 112 % of Control |  |  |
| CNc1ccc([N+](=O)[O-])c(Nc2ccc(-c3csc(C4CCCCC4)n3)cc2)n1 [Compound 151, 2-[4-(2-cyclohexylthiazol-4-yl)phenylamino]-6-(methylamino)-3-nitropyridine] |  |  |  | 101% | 70% |
| Cc1ccc(Nc2nc(NCCc3cccnc3)ccc2[N+](=O)[O-])cc1 [Compound 10, 2-(4-methylphenylamino)-6-[2-(3-pyridyl)ethylamino]-3-nitropyridine] |  |  |  | 116% | 64% |
| Cc1nc(-c2ccc(Nc3nc(N4CCNCC4)ccc3[N+](=O)[O-])cc2)cs1 [Compound 143, 2-[4-(2-methylthiazol-4-yl)phenylamino]-6-(piperazin-1-yl)-3-nitropyridine] |  |  |  | 85% | 99% |
| CC(C)(C)c1ccc(Nc2nc(N3CCNCC3)ccc2[N+](=O)[O-])cc1 [Compound 42, 2-[4-(t-butyl)phenylamino]-6-(piperazin-1-yl)-3-nitropyridine] |  |  |  | 103% | 96% |
| Nc1ccc(Nc2nc(NCc3ccncc3)ccc2[N+](=O)[O-])cc1 [Compound 66, 2-[4-(amino)phenylamino]-6-[(4-pyridyl)methylamino]-3-nitropyridine] |  |  |  | 107% | 65% |
